Reference: BindingDB's records for doi:10.1016/j.bmcl.2005.08.057 (Novartis Institutes For Biomedical Research, 2005)

What was measured:
[1] = target: C-C chemokine receptor type 1 (Rattus norvegicus); assay: Antagonistic activity at rat CCR1 in CHO-K1 cells
[2] = Inhibitory effect on transwell chemotaxis induced by 1 nM MIP-1alpha in mouse pre-B cells transfected with human CCR1

IC50 [1] | IC50 [2] | SMILES
1 nM | 7.5 nM | COc1cc(/C=C/C(=O)N2C3CCC2CN(Cc2ccc(F)cc2)C3)c(NC(C)=O)cc1Cl [N-(2-(3-(3-(4-fluorobenzyl)-3,8-diaza-bicyclo[3.2.1]octan-8-yl)-3-oxoprop-1-enyl)-5-chloro-4-methoxyphenyl)acetamide]
1500 nM |  | CC(=O)Nc1cc2ccccc2cc1/C=C/C(=O)N1CCN(Cc2ccc(F)cc2)C[C@H]1C [(R)-N-(3-(3-(4-(4-fluorobenzyl)-2-methylpiperazin-1-yl)-3-oxoprop-1-enyl)naphthalen-2-yl)acetamide]
300 nM |  | CC(=O)Nc1cc2ncccc2cc1/C=C/C(=O)N1CCN(Cc2ccc(F)cc2)C[C@H]1C [(R)-N-(6-(3-(4-(4-fluorobenzyl)-2-methylpiperazin-1-yl)-3-oxoprop-1-enyl)quinolin-7-yl)acetamide]

The next lines start with the compound.

SMILES | IC50 [1] | IC50 [2]
CN(C)CC(=O)Nc1cc(Cl)ccc1/C=C/C(=O)N1C2CCC1CN(Cc1ccc(F)cc1)C2 [N-(2-(3-(3-(4-fluorobenzyl)-3,8-diaza-bicyclo[3.2.1]octan-8-yl)-3-oxoprop-1-enyl)-5-chlorophenyl)-2-(dimethylamino)acetamide] | 10 nM | 
CC(=O)Nc1cc2ncccc2cc1/C=C/C(=O)N1C2CCC1CN(Cc1ccc(F)cc1)C2 [N-(6-(3-(3-(4-fluorobenzyl)-3,8-diaza-bicyclo[3.2.1]octan-8-yl)-3-oxoprop-1-enyl)quinolin-7-yl)acetamide] | 6 nM | 
